Data taken from patent US11111243B2, “Azaindole compounds as histone methyltransferase inhibitors” (GLOBAL BLOOD THERAPEUTICS, INC., priority 2017, dated 2021).
Counter-ions that a name gives are not always drawn.

Legend:
G9a = target: T1, G9a (Homo sapiens, UniProt Q96KQ7); test: G9a AlphaLISA enzymatic activity assay; type: biochemical; conditions: 0.15 nM G9a, 10 uM S-adenosyl-methionine, 100 nM biotinylated histone 3 peptide (1-21), 1 h room temperature
T1 sequence (Q96KQ7 1-1210): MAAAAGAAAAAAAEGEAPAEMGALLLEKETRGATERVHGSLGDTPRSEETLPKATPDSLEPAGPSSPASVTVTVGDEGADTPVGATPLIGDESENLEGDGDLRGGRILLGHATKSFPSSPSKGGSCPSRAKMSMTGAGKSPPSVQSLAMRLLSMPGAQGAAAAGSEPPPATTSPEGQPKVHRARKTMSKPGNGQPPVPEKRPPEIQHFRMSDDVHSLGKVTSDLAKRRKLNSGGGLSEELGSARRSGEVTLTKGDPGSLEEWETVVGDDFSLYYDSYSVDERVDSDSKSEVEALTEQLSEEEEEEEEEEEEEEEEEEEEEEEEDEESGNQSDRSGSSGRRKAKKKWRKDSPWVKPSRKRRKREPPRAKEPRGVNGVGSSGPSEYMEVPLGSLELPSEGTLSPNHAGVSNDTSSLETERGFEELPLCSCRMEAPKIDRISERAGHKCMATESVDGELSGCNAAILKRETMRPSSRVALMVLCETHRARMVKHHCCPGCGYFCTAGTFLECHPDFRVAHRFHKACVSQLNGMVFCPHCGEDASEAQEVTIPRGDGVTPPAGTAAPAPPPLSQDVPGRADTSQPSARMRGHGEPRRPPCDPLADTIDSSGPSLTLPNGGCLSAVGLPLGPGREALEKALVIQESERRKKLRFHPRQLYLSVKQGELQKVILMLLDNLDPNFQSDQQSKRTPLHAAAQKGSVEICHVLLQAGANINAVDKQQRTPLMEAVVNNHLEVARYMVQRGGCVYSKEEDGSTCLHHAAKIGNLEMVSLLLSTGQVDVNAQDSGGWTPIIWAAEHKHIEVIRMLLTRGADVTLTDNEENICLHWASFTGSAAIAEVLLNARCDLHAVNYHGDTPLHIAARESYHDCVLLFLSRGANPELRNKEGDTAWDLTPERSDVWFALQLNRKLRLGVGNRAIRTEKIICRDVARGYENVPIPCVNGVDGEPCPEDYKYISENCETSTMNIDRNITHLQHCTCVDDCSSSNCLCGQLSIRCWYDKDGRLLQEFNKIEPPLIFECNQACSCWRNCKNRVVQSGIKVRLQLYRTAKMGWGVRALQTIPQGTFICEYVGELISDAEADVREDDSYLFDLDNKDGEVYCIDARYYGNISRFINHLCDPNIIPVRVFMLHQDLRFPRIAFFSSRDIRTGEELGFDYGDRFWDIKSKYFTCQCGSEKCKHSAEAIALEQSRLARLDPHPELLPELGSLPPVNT
Summary of the method: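 Reaction of 0.15 nM G9a with 10 uM SAM and 100 nM biotinylated histone H3 (1-21) peptide in 50 mM Tris-HCl pH9, 50 mM NaCl, 0.01% Tween-20, 1 mM DTT, 1 h at room temperature. H3K9me2 detected by AlphaLISA (anti-H3K9me2 acceptor, streptavidin donor beads, 615 nm); IC50 from percent inhibition across dilutions.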

[1] = system: bone marrow CD34+ hematopoietic cells; conditions: human
Experimental: Cryopreserved bone marrow CD34^+ hematopoietic cells obtained from healthy adult human donors were used for all studies. A 21 day ex vivo serum free culture system was utilized that consists of two phases. In culture phase I (culture days 1-7), CD34^+ cells were placed in media containing StemPro-34 complete media (1-glutamine, pen-strep and StemPro-34 nutrient supplement) (Invitrogen, Carlsbad, Calif.) supplemented with 50 ng/mL SCF (HumanZyme, Chicago, Ill.), 50 ng/mL FLT3-Ligand (HumanZyme) and 10 ng/mL IL-3 (HumanZyme). During the first phase of culture (days 0-7), the CD34^+ cells differentiate into progenitor cell populations that include erythroblasts. After 7 days, the cells were transferred to erythropoietin (EPO; Stemcell) supplemented medium (phase 2; culture days 7-21) which is comprised of the following: StemPro-34 complete medium, 4 U/mL EPO, 3 μM mifepristone (Sigma Aldrich, St. Louis, Mo.), 10 μg/mL insulin (Sigma Aldrich), 3 U/mL heparin (Sigma Aldrich) and 0.8 mg/mL holo transferrin (Sigma Aldrich). […]
Expression levels of α-, β- and γ-globin genes are assessed by quantitative PCR analyses. HbF protein levels are assessed by the human Hemoglobin F enzyme-linked immunosorbent assay (ELISA) Quantitation Kit (Bethyl Laboratory, Montgomery, Tex., USA). Percentages of cells expressing HbF are assessed by flow cytometry analysis. […]

IC50 (G9a) | SMILES | Fold Induction [1]
34 nM | COc1cc2c(cc1OCCCN1CCCC1)[nH]c1ccnc(N3CC[C@@H](O)C3)c12 [Compound 13, (3R)-1-{8-methoxy-7-[3-(pyrrolidin-1-yl)propoxy]-5H-pyrido[4,3-b]indol-1-yl}pyrrolidin-3-ol] | –
51 nM | COc1cc2c(cc1OCCCN1CCCC1C)[nH]c1ccnc(C3CC3)c12 (stereo not shown) [Compound 60, 1-[3-({1-cyclopropyl-8-methoxy-5H-pyrido[4,3-b]indol-7-yl}oxy)propyl]-2-methylpyrrolidine hydrochloride] | –
6.5 nM | COC[C@H](C)Nc1nccc2[nH]c3cc(OCCCN4CCCC4)c(OC)cc3c12 [Compound 14, 8-methoxy-N-[(2S)-1-methoxypropan-2-yl]-7-[3-(pyrrolidin-1-yl)propoxy]-5H-pyrido[4,3-b]indol-1-amine] | –
140 nM | CCN(CC)CCCOc1cc2[nH]c3ccnc(C4CC4)c3c2cc1OC [Compound 102, [3-({1-cyclopropyl-8-methoxy-5H-pyrido[4,3-b]indol-7-yl}oxy)propyl]diethylamine hydrochloride] | –
61 nM | COc1cc2c(cc1OCCCN(C)C)[nH]c1ccnc(N(C)C)c12 [Compound 93, 7-[3-(dimethylamino)propoxy)-8-methoxy-N,N-dimethyl-5H-pyrido[4,3-b]indol-1-amine hydrochloride] | –
9.1 nM | COc1cc2c(cc1OCCCN1CCC1)[nH]c1ccncc12 [Compound 72, 1-[3-({8-methoxy-5H-pyrido[4,3-b]indol-7-yl}oxy)propyl]azetidine hydrochloride] | –
470 nM | COc1cc2c(cc1OCCCN(C)C)[nH]c1ccnc(C#CC3CC3)c12 [Compound 51, (3-{[1-(2-cyclopropylethynyl)-8-methoxy-5H-pyrido[4,3-b]indol-7-yl]oxy}propyl)dimethylamine hydrochloride] | –
16 nM | COc1cc2c(cc1OCCCN1CCCC1)[nH]c1cc(C)ncc12 [Compound 99, 1-[3-({8-methoxy-3-methyl-5H-pyrido[4,3-b]indol-7-yl}oxy)propyl]pyrrolidine hydrochloride] | –
18 nM | CCCc1nccc2[nH]c3cc(OCCCN(C)C)c(OC)cc3c12 [Compound 55, [3-({8-methoxy-1-propyl-5H-pyrido[4,3-b]indol-7-yl}oxy)propyl]dimethylamine hydrochloride] | –
300 nM | COc1cc2c(cc1OCCCN1CCCC1)[nH]c1ccnc(N3CC4CCC(C3)O4)c12 [Compound 19, 3-{8-methoxy-7-[3-(pyrrolidin-1-yl)propoxy]-5H-pyrido[4,3-b]indol-1-yl}-8-oxa-3-azabicyclo[3.2.1]octane] | –
1000 nM | COc1cc2c(cc1OCCCN1CCCC1)[nH]c1ccnc(OC(C)C)c12 [Compound 75, 1-(3-{[8-methoxy-1-(propan-2-yloxy)-5H-pyrido[4,3-b]indol-7-yl]oxy}propyl)pyrrolidine trifluoroacetate] | –
480 nM | COc1cc2c(cc1OCCCN(C(C)C)C(C)C)[nH]c1ccnc(C3CC3)c12 [Compound 61, [3-({1-cyclopropyl-8-methoxy-5H-pyrido[4,3-b]indol-7-yl}oxy)propyl]bis(propan-2-yl)amine hydrochloride] | –
380 nM | COc1cc2c(cc1OCCCN1CCCC1)[nH]c1ccnc(OC)c12 [Compound 100, 1-[3-({1,8-dimethoxy-5H-pyrido[4,3-b]indol-7-yl}oxy)propyl]pyrrolidine hydrochloride] | –
590 nM | COc1cc2c(cc1OCCCN1CCCC1)[nH]c1ccnc(F)c12 [Compound 9, 1-[3-({1-fluoro-8-methoxy-5H-pyrido[4,3-b]indol-7-yl}oxy)propyl]pyrrolidine] | –

SMILES | IC50 (G9a) | Fold Induction [1]
COc1cc2c(cc1OCCCN1CCCC1)[nH]c1ccnc(C3=CCNCC3)c12 [Compound 66, 4-{8-methoxy-7-[3-(pyrrolidin-1-yl)propoxy]-5H-pyrido[4,3-b]indol-1-yl}-1,2,3,6-tetrahydropyridine bishydrochloride] | 5.6 nM | 1.3 fold
